Laboratory results taken from PubChem BioAssay AID248 (DTP/NCI, 2004).
“And” between values parts separate entries of the source, which are not always exact repeats. Equal entries are not always repeated. Inconclusive results and toxic doses are left out. Cut-off read from the data, not from the text of the source: active = T/C of 150% or more; inactive = T/C below 125%.

Tested on: L1210 leukemia ip in BDF1 mice, survival T/C
Assay: NCI In Vivo Anticancer Drug Screen. Data for tumor model L1210 Leukemia (intraperitoneal) in B6D2F1 (BDF1) mice
Details: endpoint: mean survival time, higher = longer survival
Outline: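 Mice bearing the transplanted tumor received compound or vehicle. Survival of the treated group was divided by that of the vehicle-treated control group to give the ratio.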

[1] = dose: 100.0 mg/kg/injection, schedule: Q01DX009 (ip), vehicle: saline with Tween-80
[2] = dose: 100.0 mg/kg/injection, schedule: Q04DX002 (ip), vehicle: saline with Tween-80
[3] = dose: 200.0 mg/kg/injection, schedule: Q01DX009 (ip), vehicle: saline with Tween-80
[4] = dose: 200.0 mg/kg/injection, schedule: Q04DX002 (ip), vehicle: saline with Tween-80
[5] = dose: 400.0 mg/kg/injection, schedule: Q01DX009 (ip), vehicle: saline with Tween-80
[6] = dose: 400.0 mg/kg/injection, schedule: Q04DX002 (ip), vehicle: saline with Tween-80
[7] = dose: 100.0 mg/kg/injection, schedule: Q01DX009 (ip), vehicle: Klucel (hydroxypropylcellulose) (HPC)
[8] = dose: 200.0 mg/kg/injection, schedule: Q01DX009 (ip), vehicle: Klucel (hydroxypropylcellulose) (HPC)
[9] = dose: 400.0 mg/kg/injection, schedule: Q01DX009 (ip), vehicle: Klucel (hydroxypropylcellulose) (HPC)
[10] = dose: 100.0 mg/kg/injection, schedule: Q01DX001 (ip), vehicle: carboxymethylcellulose (CMC)
[11] = dose: 200.0 mg/kg/injection, schedule: Q01DX001 (ip), vehicle: carboxymethylcellulose (CMC)
[12] = dose: 400.0 mg/kg/injection, schedule: Q01DX001 (ip), vehicle: carboxymethylcellulose (CMC)
[13] = dose: 50.0 mg/kg/injection, schedule: Q01DX009 (ip), vehicle: saline with Tween-80
[14] = dose: 100.0 mg/kg/injection, schedule: Q01DX001 (ip), vehicle: saline
[15] = dose: 200.0 mg/kg/injection, schedule: Q01DX001 (ip), vehicle: saline
[16] = dose: 400.0 mg/kg/injection, schedule: Q01DX001 (ip), vehicle: saline
[17] = dose: 100.0 mg/kg/injection, schedule: Q04DX003 (ip), vehicle: saline with Tween-80
[18] = dose: 200.0 mg/kg/injection, schedule: Q04DX003 (ip), vehicle: saline with Tween-80
[19] = dose: 400.0 mg/kg/injection, schedule: Q04DX003 (ip), vehicle: saline with Tween-80
[20] = dose: 100.0 mg/kg/injection, schedule: Q04DX003 (ip), vehicle: Klucel (hydroxypropylcellulose) (HPC)
[21] = dose: 200.0 mg/kg/injection, schedule: Q04DX003 (ip), vehicle: Klucel (hydroxypropylcellulose) (HPC)
[22] = dose: 400.0 mg/kg/injection, schedule: Q04DX003 (ip), vehicle: Klucel (hydroxypropylcellulose) (HPC)

Measured: T/C

CCN1/C(=C/C(C)=C/c2[se]c3ccccc3[n+]2CC)[Se]c2ccc(OC)cc21
inactive: dose: 5.0 mg/kg/injection, schedule: Q01DX001 (ip), vehicle: saline 105 % of control | dose: 10.0 mg/kg/injection, schedule: Q01DX001 (ip), vehicle: saline 100 % of control | dose: 20.0 mg/kg/injection, schedule: Q01DX001 (ip), vehicle: saline 97 % of control | dose: 40.0 mg/kg/injection, schedule: Q01DX001 (ip), vehicle: saline 100 % of control

CC(=O)OC1CC2(O)C3CCC4CC(O)CCC4(C)C3CCC2(C)C1c1ccc(=O)oc1 (stereo unspecified)
inactive: dose: 100.0 mg/kg/injection, schedule: Q01DX001 (sc), vehicle: steriod suspending solution 107 % of control | dose: 200.0 mg/kg/injection, schedule: Q01DX001 (sc), vehicle: steriod suspending solution 101 % of control | dose: 400.0 mg/kg/injection, schedule: Q01DX001 (sc), vehicle: steriod suspending solution 107 % of control

O=C1c2ccccc2C(=O)N1CNc1ccccc1Cl
inactive: [1] 93 % of control | [2] 98 % of control | [3] 93 % of control | [4] 91 % of control | [5] 100 % of control | [6] 88 % of control

COC(=O)C(O)C(O)C(O)C(O)C(=O)OC (stereo unspecified)
inactive: dose: 50.0 mg/kg/injection, schedule: Q04DX002 (ip), vehicle: saline with Tween-80 101 % of control | [2] 96 % of control | [4] 90 % of control | [6] 93 % of control

CCN(C)C(=O)Nc1ccc(N)cc1
inactive: dose: 100.0 mg/kg/injection, schedule: Q04DX002 (ip), vehicle: saline 101 % of control | dose: 200.0 mg/kg/injection, schedule: Q04DX002 (ip), vehicle: saline 104 % of control | dose: 400.0 mg/kg/injection, schedule: Q04DX002 (ip), vehicle: saline 108 % of control

NCS(=O)(=O)O
inactive: dose: 25.0 mg/kg/injection, schedule: Q01DX001 (ip), vehicle: saline with Tween-80 107 % of control | dose: 50.0 mg/kg/injection, schedule: Q01DX001 (ip), vehicle: saline with Tween-80 107 % of control | [7] 98 % of control | dose: 100.0 mg/kg/injection, schedule: Q01DX009 (ip), vehicle: saline 100 % of control | [8] 98 % of control | dose: 200.0 mg/kg/injection, schedule: Q01DX009 (ip), vehicle: saline 93 % of control | [9] 95 % of control | dose: 400.0 mg/kg/injection, schedule: Q01DX009 (ip), vehicle: saline 88 % of control

COc1ccc(Br)cc1CC=O
inactive: [10] 103 % of control | dose: 177.6 mg/kg/injection, schedule: Q01DX001 (ip), vehicle: carboxymethylcellulose (CMC) 95 % of control and 105 % of control | [11] 103 % of control | dose: 266.8 mg/kg/injection, schedule: Q01DX001 (ip), vehicle: carboxymethylcellulose (CMC) 97 % of control and 103 % of control | [12] 95 % of control and 103 % of control | dose: 600.0 mg/kg/injection, schedule: Q01DX001 (ip), vehicle: carboxymethylcellulose (CMC) 97 % of control and 103 % of control

O=C1c2cc(-c3ccccc3)c(-c3ccccc3)cc2C(c2ccccc2)(c2ccccc2)C1(Cl)Cl
inactive: [13] 100 % of control | [1] 100 % of control | [3] 95 % of control

NC(c1ccccc1)(c1ccccc1)c1ccccc1
inactive: [14] 101 % of control | [15] 101 % of control | [16] 101 % of control

Cc1nccnc1N/N=C\c1ccc(N(CCCl)CCCl)cc1
inactive: [10] 104 % of control | [11] 96 % of control | [12] 93 % of control

Nc1ccc2[nH]ncc2c1
inactive: [17] 102 % of control | [18] 102 % of control | [19] 110 % of control

NC(=S)S/C=C/C(=O)O
inactive: [13] 96 % of control | [1] 93 % of control | [17] 110 % of control | [3] 86 % of control | [18] 100 % of control | [19] 97 % of control

O/N=C1/CCCC/C1=C/C=C/c1ccccc1
inactive: [7] 97 % of control | [20] 100 % of control | [8] 97 % of control | [21] 94 % of control | [9] 97 % of control | [22] 93 % of control

CCC#CC(O)(C(=O)OCC)C1CCCCC1 (stereo unspecified)
inactive: dose: 100.0 mg/kg/injection, schedule: Q01DX001 (ip), vehicle: other 104 % of control | dose: 200.0 mg/kg/injection, schedule: Q01DX001 (ip), vehicle: other 96 % of control | dose: 400.0 mg/kg/injection, schedule: Q01DX001 (ip), vehicle: other 104 % of control

CCOC(=O)NCC(CCN1CCCCC1)(c1cccc2ccccc12)C(C)C (stereo unspecified)
inactive: [20] 100 % of control | [21] 88 % of control

NNC(=O)CNc1ccc(F)cc1
inactive: dose: 100.0 mg/kg/injection, schedule: Q04DX002 (ip), vehicle: Klucel (hydroxypropylcellulose) (HPC) 105 % of control | dose: 200.0 mg/kg/injection, schedule: Q04DX002 (ip), vehicle: Klucel (hydroxypropylcellulose) (HPC) 114 % of control

CCc1ccc(C(C)(C)C)cc1
inactive: [13] 95 % of control | [1] 95 % of control | [3] 107 % of control

Nc1ccc2nc(NCCO)c3ccccc3c2c1
inactive: [7] 107 % of control | [20] 104 % of control | [8] 114 % of control | [21] 104 % of control | [9] 88 % of control | [22] 104 % of control

O=C(CCCC(=O)N/N=C/c1cc([N+](=O)[O-])ccc1O)N/N=C\c1cc([N+](=O)[O-])ccc1O
inactive: dose: 50.0 mg/kg/injection, schedule: Q01DX001 (ip), vehicle: saline 96 % of control | [14] 104 % of control | [15] 102 % of control | [16] 98 % of control

CCNC(=O)Nc1ccc(N(CC)CC)cc1
inactive: [1] 93 % of control | [17] 103 % of control | [3] 87 % of control | [18] 96 % of control | [5] 98 % of control | [19] 96 % of control

CCC(C#N)(CCN(CC=C(C)C)CC=C(C)C)c1cccc2ccccc12 (stereo unspecified)
inactive: [20] 96 % of control

Cc1ccc(S(=O)(=O)N(CCCc2c(Cl)nc(N)nc2Cc2ccccc2)c2ccccc2)cc1
inactive: dose: 100.0 mg/kg/injection, schedule: Q04DX003 (ip), vehicle: gum acacia 97 % of control | dose: 200.0 mg/kg/injection, schedule: Q04DX003 (ip), vehicle: gum acacia 92 % of control | dose: 400.0 mg/kg/injection, schedule: Q04DX003 (ip), vehicle: gum acacia 94 % of control

NC(=S)N1N=C(c2ccccc2)CC1=O
inactive: dose: 75.0 mg/kg/injection, schedule: Q01DX001 (ip), vehicle: carboxymethylcellulose (CMC) 107 % of control | dose: 150.0 mg/kg/injection, schedule: Q01DX001 (ip), vehicle: carboxymethylcellulose (CMC) 96 % of control | dose: 300.0 mg/kg/injection, schedule: Q01DX001 (ip), vehicle: carboxymethylcellulose (CMC) 96 % of control
